Results published in patent US9849130B2 (KamTek, Inc., priority 2014, dated 2017).
In brackets after ≈: the same amount, converted by molar mass. Several values for one entry are separate records, joined by “and”; a condition that tells them apart may be missing. Equal entries are not always repeated. Where two headings read alike, the source gives them in different places. Blank lines part the entries; values can stand above or below the compound they belong to.

Columns and labels:
[1] = test system: Escherichia coli strains; test: MIC by microdilution in Mueller-Hinton broth against Escherichia coli strains; assay type: cell-based; conditions: for MIC: Escherichia coli, Mueller-Hinton broth, read-out: MIC
[2] = test system: Enterococci faecium; test: MIC by microdilution in Mueller-Hinton broth against Enterococci faecium strains; assay type: cell-based, Enterococcus faecium; conditions: Enterococcus faecium, Mueller-Hinton broth, read-out: MIC
[3] = test system: Staphylococcus aureus strains; test: MIC by microdilution in Mueller-Hinton broth against Staphylococcus aureus strains; assay type: cell-based; conditions: Staphylococcus aureus
[4] = test system: Enterococcus faecalis; test: MIC by microdilution in Mueller-Hinton broth against Enterococcus faecalis strains; assay type: cell-based; conditions: Enterococcus faecalis
[5] = test system: Clostridium difficile (CD) strains; test: microbe, parasite or virus in culture; assay type: cell-based
[6] = test system: Bacteroides Strains; test: MIC by microdilution in Brucella broth against Bacteroides strains; assay type: cell-based, Bacteroides spp.
[7] = Escherichia coli strain NR 17626
[8] = Escherichia coli strain NR 17627
[9] = Escherichia coli strain NR 17633
[10] = Escherichia coli strain NR 17647
[11] = Escherichia coli strain NR 17650
[12] = Escherichia coli strain NR 17661
[13] = S. aureus NR 10129, read-out: MIC
[14] = S. aureus NR 10186, read-out: MIC
[15] = S. aureus NR 10187, read-out: MIC
[16] = S. aureus NR 10188, read-out: MIC
[17] = S. aureus NR 10189, read-out: MIC
[18] = S. aureus NR 10191, read-out: MIC
[19] = S. aureus NR 10192, read-out: MIC
[20] = S. aureus NR 10193, read-out: MIC
[21] = S. aureus NR 10194, read-out: MIC
[22] = S. aureus NR 10198, read-out: MIC
[23] = Staphylococcus aureus strain NR 10129, read-out: MIC
[24] = Staphylococcus aureus strain NR 10186, read-out: MIC
[25] = Staphylococcus aureus strain NR 10187, read-out: MIC
[26] = Staphylococcus aureus strain NR 10188, read-out: MIC
[27] = Staphylococcus aureus strain NR 10189, read-out: MIC
[28] = Staphylococcus aureus strain NR 10191, read-out: MIC
[29] = Staphylococcus aureus strain NR 10192, read-out: MIC
[30] = Staphylococcus aureus strain NR 10193, read-out: MIC
[31] = Staphylococcus aureus strain NR 10194, read-out: MIC
[32] = Staphylococcus aureus strain NR 10198, read-out: MIC
[33] = E. faecalis NR 31884, read-out: MIC
[34] = E. faecalis NR 31885, read-out: MIC
[35] = E. faecalis NR 31886, read-out: MIC
[36] = E. faecalis NR 31887, read-out: MIC
[37] = E. faecalis NR 31888, read-out: MIC

MIC ([1]; E. coli NR 6): 4 mg/L (≈ 6.83 µM)
MIC ([1]; E. coli NR 8): 4 mg/L (≈ 6.83 µM)
MIC ([1]; E. coli NR 96): 8 mg/L (≈ 13.7 µM)
MIC ([1]; E. coli NR 104): 2 mg/L (≈ 3.42 µM)
MIC ([1]; E. coli NR 17626): 16 mg/L (≈ 27.3 µM)
MIC ([1]; E. coli NR 17627): 8 mg/L (≈ 13.7 µM)
MIC ([1]; E. coli NR 17633): 8 mg/L (≈ 13.7 µM)
MIC ([1]; E. coli NR 17647): 2 mg/L (≈ 3.42 µM)
MIC ([1]; E. coli NR 17650): 8 mg/L (≈ 13.7 µM)
MIC ([1]; E. coli NR 17661): 2 mg/L (≈ 3.42 µM)
MIC ([1]; Escherichia coli strain NR 6): 4 mg/L (≈ 6.83 µM)
MIC ([1]; Escherichia coli strain NR 8): 4 mg/L (≈ 6.83 µM)
MIC ([1]; Escherichia coli strain NR 96): 8 mg/L (≈ 13.7 µM)
MIC ([1]; Escherichia coli strain NR 104): 2 mg/L (≈ 3.42 µM)
MIC [1, 7]: 16 mg/L (≈ 27.3 µM)
MIC [1, 8]: 8 mg/L (≈ 13.7 µM)
MIC [1, 9]: 8 mg/L (≈ 13.7 µM)
MIC [1, 10]: 2 mg/L (≈ 3.42 µM)
MIC [1, 11]: 8 mg/L (≈ 13.7 µM)
MIC [1, 12]: 2 mg/L (≈ 3.42 µM)
MIC ([2]; E. faecium NR 31903): > 32 mg/L
MIC ([2]; E. faecium NR 31909): > 32 mg/L
MIC ([2]; E. faecium NR 31912): > 32 mg/L
MIC ([2]; E. faecium NR 31915): > 32 mg/L
MIC ([2]; E. faecium NR 31916): > 32 mg/L
MIC [3, 13]: 2 mg/L (≈ 3.42 µM)
MIC [3, 14]: 32 mg/L (≈ 54.6 µM)
MIC [3, 15]: > 32 mg/L
MIC [3, 16]: > 32 mg/L
MIC [3, 17]: 4 mg/L (≈ 6.83 µM)
MIC [3, 18]: 32 mg/L (≈ 54.6 µM)
MIC [3, 19]: > 32 mg/L
MIC [3, 20]: > 32 mg/L
MIC [3, 21]: 32 mg/L (≈ 54.6 µM)
MIC [3, 22]: > 32 mg/L
MIC [3, 23]: 2 mg/L (≈ 3.42 µM)
MIC [3, 24]: 32 mg/L (≈ 54.6 µM)
MIC [3, 25]: > 32 mg/L
MIC [3, 26]: > 32 mg/L
MIC [3, 27]: 4 mg/L (≈ 6.83 µM)
MIC [3, 28]: 32 mg/L (≈ 54.6 µM)
MIC [3, 29]: > 32 mg/L
MIC [3, 30]: > 32 mg/L
MIC [3, 31]: 32 mg/L (≈ 54.6 µM)
MIC [3, 32]: > 32 mg/L
MIC [4, 33]: > 32 mg/L
MIC [4, 34]: > 32 mg/L
MIC [4, 35]: > 32 mg/L
MIC [4, 36]: > 32 mg/L
MIC [4, 37]: > 32 mg/L
SMILES: NCC[C@H](O)C(=O)N[C@@H]1C[C@H](N)[C@@H](O[C@H]2O[C@H](CN)[C@@H](O)[C@H](O)[C@H]2O)[C@H](O)[C@H]1O[C@H]1O[C@H](CO)[C@@H](O)[C@H](N)[C@H]1O [AMK, amikacin]

MIC ([1]; E. coli NR 6): 2 mg/L (≈ 5.72 µM)
MIC ([1]; E. coli NR 8): 4 mg/L (≈ 11.4 µM)
MIC ([1]; E. coli NR 96): 4 mg/L (≈ 11.4 µM)
MIC ([1]; E. coli NR 104): 4 mg/L (≈ 11.4 µM)
MIC ([1]; E. coli NR 17626): 4 mg/L (≈ 11.4 µM)
MIC ([1]; E. coli NR 17627): 4 mg/L (≈ 11.4 µM)
MIC ([1]; E. coli NR 17633): 4 mg/L (≈ 11.4 µM)
MIC ([1]; E. coli NR 17647): 4 mg/L (≈ 11.4 µM)
MIC ([1]; E. coli NR 17650): 4 mg/L (≈ 11.4 µM)
MIC ([1]; E. coli NR 17661): > 32 mg/L
MIC ([1]; Escherichia coli strain NR 6): 2 mg/L (≈ 5.72 µM)
MIC ([1]; Escherichia coli strain NR 8): 4 mg/L (≈ 11.4 µM)
MIC ([1]; Escherichia coli strain NR 96): 4 mg/L (≈ 11.4 µM)
MIC ([1]; Escherichia coli strain NR 104): 4 mg/L (≈ 11.4 µM)
MIC [1, 7]: 4 mg/L (≈ 11.4 µM)
MIC [1, 8]: 4 mg/L (≈ 11.4 µM)
MIC [1, 9]: 4 mg/L (≈ 11.4 µM)
MIC [1, 10]: 4 mg/L (≈ 11.4 µM)
MIC [1, 11]: 4 mg/L (≈ 11.4 µM)
MIC [1, 12]: > 32 mg/L
MIC ([2]; E. faecium NR 31903): > 32 mg/L
MIC ([2]; E. faecium NR 31909): > 32 mg/L
MIC ([2]; E. faecium NR 31912): > 32 mg/L
MIC ([2]; E. faecium NR 31915): 2 mg/L (≈ 5.72 µM)
MIC ([2]; E. faecium NR 31916): > 32 mg/L
MIC [3, 13]: > 32 mg/L
MIC [3, 14]: > 32 mg/L
MIC [3, 15]: 8 mg/L (≈ 22.9 µM)
MIC [3, 16]: 16 mg/L (≈ 45.8 µM)
MIC [3, 17]: 32 mg/L (≈ 91.6 µM)
MIC [3, 18]: > 32 mg/L
MIC [3, 19]: 32 mg/L (≈ 91.6 µM)
MIC [3, 20]: > 32 mg/L
MIC [3, 21]: 2 mg/L (≈ 5.72 µM)
MIC [3, 22]: > 32 mg/L
MIC [3, 23]: > 32 mg/L
MIC [3, 24]: > 32 mg/L
MIC [3, 25]: 8 mg/L (≈ 22.9 µM)
MIC [3, 26]: 16 mg/L (≈ 45.8 µM)
MIC [3, 27]: 32 mg/L (≈ 91.6 µM)
MIC [3, 28]: > 32 mg/L
MIC [3, 29]: 32 mg/L (≈ 91.6 µM)
MIC [3, 30]: > 32 mg/L
MIC [3, 31]: 2 mg/L (≈ 5.72 µM)
MIC [3, 32]: > 32 mg/L
MIC [4, 33]: 4 mg/L (≈ 11.4 µM)
MIC [4, 34]: 4 mg/L (≈ 11.4 µM)
MIC [4, 35]: 4 mg/L (≈ 11.4 µM)
MIC [4, 36]: 0.5 mg/L (≈ 1.43 µM)
MIC [4, 37]: 4 mg/L (≈ 11.4 µM)
SMILES: CC1(C)S[C@@H]2[C@H](NC(=O)[C@H](N)c3ccccc3)C(=O)N2[C@H]1C(=O)O [AMP, ampicillin]

SMILES: O=C1C(NC2CCCCCCC2)=CC(=O)c2ncccc21 [AZQ, 6-(cyclooctylamino)-5,8-quinolinequinone]
activity against E. coli (in words) [1]: no activity
MIC ([1]; E. coli NR 6): > 32 mg/L
MIC ([1]; E. coli NR 8): > 32 mg/L
MIC ([1]; E. coli NR 96): > 32 mg/L
MIC ([1]; E. coli NR 104): > 32 mg/L
MIC ([1]; E. coli NR 17626): > 32 mg/L
MIC ([1]; E. coli NR 17627): > 32 mg/L
MIC ([1]; E. coli NR 17633): > 32 mg/L
MIC ([1]; E. coli NR 17647): > 32 mg/L
MIC ([1]; E. coli NR 17650): > 32 mg/L
MIC ([1]; E. coli NR 17661): > 32 mg/L
MIC ([2]; E. faecium NR 31903): > 32 mg/L
MIC ([2]; E. faecium NR 31909): 32 mg/L (≈ 113 µM)
MIC ([2]; E. faecium NR 31912): 32 mg/L (≈ 113 µM)
MIC ([2]; E. faecium NR 31915): > 32 mg/L
MIC ([2]; E. faecium NR 31916): 16 mg/L (≈ 56.3 µM)
MIC [3, 13]: 32 mg/L (≈ 113 µM)
MIC [3, 14]: 16 mg/L (≈ 56.3 µM)
MIC [3, 15]: > 32 mg/L
MIC [3, 16]: 32 mg/L (≈ 113 µM)
MIC [3, 17]: 16 mg/L (≈ 56.3 µM)
MIC [3, 18]: 8 mg/L (≈ 28.1 µM)
MIC [3, 19]: 32 mg/L (≈ 113 µM)
MIC [3, 20]: 16 mg/L (≈ 56.3 µM)
MIC [3, 21]: 16 mg/L (≈ 56.3 µM)
MIC [3, 22]: 16 mg/L (≈ 56.3 µM)
MIC [4, 33]: 32 mg/L (≈ 113 µM)
MIC [4, 34]: 32 mg/L (≈ 113 µM)
MIC [4, 35]: 32 mg/L (≈ 113 µM)
MIC [4, 36]: 16 mg/L (≈ 56.3 µM)
MIC [4, 37]: 32 mg/L (≈ 113 µM)
MIC Range [5]: 0.25 to 1 mg/L
MIC90 ([5]; Clostridioides difficile): 1 mg/L (≈ 3.52 µM)
MIC ([6]; B. caccae HM728, read-out: MIC): 2 mg/L (≈ 7.03 µM)
MIC ([6]; B. eggerthii HM210, read-out: MIC): 2 mg/L (≈ 7.03 µM)
MIC ([6]; B. fragilis HM709, read-out: MIC): 2 mg/L (≈ 7.03 µM)
MIC ([6]; B. fragilis HM710, read-out: MIC): 2 mg/L (≈ 7.03 µM)
MIC ([6]; B. fragilis HM714, read-out: MIC): 2 mg/L (≈ 7.03 µM)
MIC ([6]; B. ovatus HM222, read-out: MIC): 1 mg/L (≈ 3.52 µM)
MIC ([6]; B. stercoris HM1036, read-out: MIC): 2 mg/L (≈ 7.03 µM)
MIC ([6]; Bacteroides, B. spp. HM19): 4 mg/L (≈ 14.1 µM)
MIC ([6]; Bacteroides, B. spp. HM23, read-out: MIC): 2 mg/L (≈ 7.03 µM)
MIC ([6]; Bacteroides, B. spp. HM27): 1 mg/L (≈ 3.52 µM)
MIC ([6]; Bacteroides, B. spp. HM58): 4 mg/L (≈ 14.1 µM)

SMILES: CC1(C)CC(N=c2cc3n(-c4ccc(Cl)c(Cl)c4)c4ccccc4nc-3cc2Nc2ccc(Cl)c(Cl)c2)CC(C)(C)N1 [B4100]
MIC [5]: 0.25 mg/L and 0.125 mg/L
